Test results taken from paper PMC8873473, “Antidiabetic, antioxidant, and anti-obesity effects of phenylthio-ethyl benzoate derivatives, and molecular docking study regarding α-amylase enzyme” (Scientific Reports, 2022).

Key:
[1] = DPPH free radical scavenging test; details: 517 nm, 30 min incubation
Description: Four synthetic compounds were tested for the efficiency of scavenging free radicals matched with trolox and gallic acid as a basic. From the compounds, 1 mg/ml concentration solutions in methanol were prepared, and the solutions were used to prepare concentrations of 5, 10, 20, 30, 40, and 50 μg/ml. The DPPH reagent (0.002% w/v) was dissolved in methanol before mixed with working concentrations in ratios of 1:1:1 (compound:DPPH:methanol). The methanol solution was adopted as a blank. All the solutions were incubated for 30 min at room temperature in the dark. When the antioxidant compound reacts with DPPH, which can donate hydrogen, it is reduced the color changes from deep violet to light. Absorbance values were estimated by using a UV–Vis spectrophotometer at a wavelength of 517 nm. The DPPH inhibition percentage of all tested compound, trolox and gallic acid, was estimated according to the formula: Inhibitionpercentage=Ab-As/Ab×100%, where Ab is blank absorbance, and AS is sample absorbance. The IC50 values for tested synthetic compounds, trolox and gallic acid were determined from the curves.

[2] = target: T1, porcine pancreatic lipase enzyme (Sus scrofa, UniProt P00591); assay: Porcine pancreatic lipase inhibition (p-nitrophenyl butyrate hydrolysis); type: biochemical; details: read-out: Anti-lipase activity IC50 (converted)
T1 construct: purchased Frutarom (UK)
T1 sequence (P00591 1-450): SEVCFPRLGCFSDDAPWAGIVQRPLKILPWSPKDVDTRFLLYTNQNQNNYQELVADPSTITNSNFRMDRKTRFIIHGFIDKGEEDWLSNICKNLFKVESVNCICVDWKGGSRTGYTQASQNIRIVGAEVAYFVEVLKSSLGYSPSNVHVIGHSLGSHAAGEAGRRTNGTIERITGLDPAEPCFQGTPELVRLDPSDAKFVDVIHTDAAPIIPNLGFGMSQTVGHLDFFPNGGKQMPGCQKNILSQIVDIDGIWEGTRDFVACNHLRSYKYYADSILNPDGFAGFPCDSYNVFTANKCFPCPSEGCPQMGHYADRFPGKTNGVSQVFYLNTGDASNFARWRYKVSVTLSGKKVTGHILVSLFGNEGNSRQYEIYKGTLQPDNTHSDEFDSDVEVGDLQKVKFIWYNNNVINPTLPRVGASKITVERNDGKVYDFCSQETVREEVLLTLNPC
Description: The lipase inhibitory activity was conducted by following the method in the references with minor modifications[19]–[21]. The prepared synthesized compounds solutions (1 mg/ml) were diluted with 10% DMSO to produce five different dilutions (0.2, 0.4, 0.6, 0.8, and 1 mg/ml). […] A Tris–HCl buffer was used to zero UV–Vis spectrophotometer at 405 nm.
The hydrolysis of p-nitrophenyl butyrate to p-nitrophenyl was used to measure the influence of the synthetic acid esters on the porcine pancreatic lipase enzyme.

[3] = target: T2, porcine pancreatic amylase (Sus scrofa, UniProt P00690); assay: α-Amylase inhibitory activity; type: biochemical; details: mean ± SD, triplicates; read-out: α-Amylase enzyme IC50 (converted)
T2 construct: purchased Frutarom (UK)
T2 sequence (P00690 16-511): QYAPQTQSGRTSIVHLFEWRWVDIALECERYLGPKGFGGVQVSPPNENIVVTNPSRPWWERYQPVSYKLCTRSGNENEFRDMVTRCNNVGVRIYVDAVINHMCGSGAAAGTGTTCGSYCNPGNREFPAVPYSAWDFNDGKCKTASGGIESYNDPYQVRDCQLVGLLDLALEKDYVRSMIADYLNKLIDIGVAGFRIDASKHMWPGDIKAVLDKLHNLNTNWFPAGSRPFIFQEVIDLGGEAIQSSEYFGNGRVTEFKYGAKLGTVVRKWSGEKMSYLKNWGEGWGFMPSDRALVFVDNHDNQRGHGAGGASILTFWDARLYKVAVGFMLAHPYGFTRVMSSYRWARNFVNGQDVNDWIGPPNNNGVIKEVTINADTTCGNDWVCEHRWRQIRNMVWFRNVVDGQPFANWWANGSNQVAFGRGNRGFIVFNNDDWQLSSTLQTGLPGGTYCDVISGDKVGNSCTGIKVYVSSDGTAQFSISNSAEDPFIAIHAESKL
Description: The α-amylase inhibitory evaluation was established following the Wickramaratne et al. procedure[13] with minor changes. Working solutions with concentrations of 10, 50, 100, 500, and 1000 µg/ml were produced from our synthesized compounds, diluting them with a buffer of Na2HPO4/NaH2PO4 (0.02 M), NaCl (0.006 M) at pH 6.9 and then brined up to 10 ml using a 10 ml volumetric flask. […] As percent inhibition, the enzyme inhibitory potential was expressed, and the following equation was utilized to estimate the IC50 dose for the samples[14]. %a-AmylaseInhibiton=Abs100%control-AbsSample/Abs100%Control×100

[4] = β-Carotene linoleic acid antioxidant test; details: concentration 0.2 mg/ml; for Absorbance in β-carotene linoleic acid test: after 75 min, 470 nm; for Antioxidant efficiency in β-carotene linoleic acid test: compared with water (control) and α-tocopherol
Description: The activity of the synthesized compounds was assessed via performing a modified assay of Gazzani and Miller[17]. The method was based on the coupled oxidation of β-carotene and linoleic acid emulsion. The bleaching mechanism of β-carotene is produced from the hydro-peroxides created from linoleic acid[18]. During the oxidation process, the characteristic orange color of β-carotene and the chromophore will be lost. The presence of antioxidants can hinder the extent of the β-carotene bleaching. Briefly, 1 mg of β-carotene was dissolved in 2 ml of chloroform, 20 mg of linoleic acid, and 200 mg of Tween 20. A rotary evaporator entirely vaporized chloroform at a temperature of less than 30 °C under reduced pressure. Then 200 ml of distilled water saturated with oxygen was added to the flask, which was shaken vigorously for 30 min. A sample (5 ml) of the prepared emulsion was transferred to a series of tubes containing 0.1 ml of the synthesized compounds or tocopherol (2 mg/ml).
The control sample was prepared in the same way but without added antioxidants. Each sample type was prepared in triplicate. The samples were inserted in a water bath at 50 °C for 2 h. The absorbance of the samples was measured using a spectrophotometer at a wavelength of 470 nm, immediately after the preparation of the samples, and at 15-min intervals until the end (t = 120 min) of the experiment.

α-glucosidase = assay: α-Glucosidase (α-glycosidase) inhibitory activity, PNPG substrate; type: biochemical; details: mean ± SD, triplicates
Description: The inhibition of α-glucosidase activity by the synthesized molecules was measured. The α-glucosidase inhibitory activity is expressed as percentages of inhibition, which was calculated using the following formula: Inhibitoryeffect%=Ab-As/Ab∗100% where Ab and As are the absorbance values of the blank (containing PBS, α-glucosidase, and PNPG, the colored substrate of glucosidase) and the tested samples containing PBS, samples, α-glycosidase, and PNPG, respectively. The α-glucosidase activity was measured using 10 and 20 mg/ml of the synthesized molecules. Each concentration was recorded by using […] PNPG. The inhibitory pattern was assessed using a Lineweaver–Burk plot. The constant Ki of enzyme inhibitory effect was determined.

| Compound | Antioxidant activity IC50, DPPH test [1] | IC50 [2] | IC50 [3] | Absorbance in β-carotene linoleic acid test [4] | Antioxidant efficiency in β-carotene linoleic acid test [4] | α-Glycosidase enzyme IC50 (α-glucosidase) |
| --- | --- | --- | --- | --- | --- | --- |
| Cc1c(C)c2c(c(C)c1O)CC[C@@](C)(C(=O)O)O2 [Trolox, (S)-(–)-6 hydroxy-2,5,7,8-tetramethychroman-2-carboxylic acid] | 4.28 ± 0.47 µg/mL |  |  |  |  |  |
| O=C(OCCSc1ccccc1)c1ccccc1 [Compound 2a] | 47.01 ± 1.07 µg/mL | 418 µM | 13.8 µM | 1.04 | higher antioxidant efficiency | 10.09 ± 0.70 µg/mL |
| O=C(OCCSc1ccccc1)c1cccc(O)c1 [Compound 2c] |  | 1240 µM | 71.3 µM |  |  | 78.1 ± 0.76 µg/mL |
| O=C(OCCSc1ccccc1)c1ccccc1O [Compound 2b] |  |  | 45.3 µM | 0.84 | higher antioxidant efficiency | 89.95 ± 0.49 µg/mL |
| O=C(O)c1cc(O)c(O)c(O)c1 [Gallic acid, gallic acid] | 31.72 ± 1.22 µg/mL |  |  |  |  |  |
| O=C(OCCSc1ccccc1)c1ccc(O)cc1 [Compound 2d] |  | 434 µM | 48.9 µM |  |  | 114.17 ± 1.04 µg/mL |
